From PMC11050816, “Pharmacokinetics and Safety of Lurbinectedin Administrated with Itraconazole in Cancer Patients: A Drug–Drug Interaction Study” (Marine Drugs, 2024)
Like-named read-outs stand apart in the source and are kept apart here.

Legend:
[1] = cited from earlier work
cytochrome P450 (CYP) 3A = conditions: based on in vitro studies; cited from earlier work
[2] = parameters: method as in PMID 24563480; conditions: 1.3 mg/m^2 over 1 h without CYP3A4 inhibitors; cited from earlier work
[3] = Unbound plasma lurbinectedin pharmacokinetics with and without itraconazole (phase Ib drug-drug interaction study); assay type: in vivo, human
From the text: (§1) The study consisted of two parts.

[4] = Safety assessment: adverse events and laboratory abnormalities graded by NCI-CTCAE v. 5.0; assay type: in vivo, human
From the text: Safety analyses included all 14 patients who received at least one dose of lurbinectedin (Part A, n = 3; Part B, n = 11). Thirteen of the fourteen treated patients (three in Part A and ten in Part B) received itraconazole plus lurbinectedin in Cycles 1 or 2, and all fourteen treated patients (three in Part A and 11 in Part B) received lurbinectedin alone in Cycles 1, 2, or 3.
as §1
Safety evaluations included assessments of AEs, clinical laboratory tests, deaths, vital signs measurements, and physical examinations. TEAEs were defined as any AE that worsened in severity from baseline or having their onset between the first dose of the study drug and 31 days (±10 days) after the last dose, death, or date of further therapy. AEs were coded based on the Medical Dictionary for Regulatory Activities (MedDRA) v. 23.0 and graded as per the National Cancer Institute–Common Terminology Criteria for Adverse Events (NCI-CTCAE) v. 5.0.

[5] = Total plasma lurbinectedin pharmacokinetics with and without itraconazole (phase Ib drug-drug interaction study); assay type: in vivo, human
From the text: as §1

[6] = cited from earlier work; remark: listed apart in the source
[7] = co-administration with itraconazole compared to lurbinectedin alone
[8] = unbound plasma lurbinectedin, Test n = 5, Reference n = 8
[9] = Part A (LRB 0.8 mg/m^2 with ITZ, 3.2 mg/m^2 alone), all grades
[10] = Part A (LRB 0.8 mg/m^2 with ITZ, 3.2 mg/m^2 alone), grade 3
[11] = Part A (LRB 0.8 mg/m^2 with ITZ, 3.2 mg/m^2 alone), grade 4
[12] = Part B (LRB 0.9 mg/m^2 with ITZ, 3.2 mg/m^2 alone), all grades
[13] = Part B (LRB 0.9 mg/m^2 with ITZ, 3.2 mg/m^2 alone), grade 3
[14] = Part B (LRB 0.9 mg/m^2 with ITZ, 3.2 mg/m^2 alone), grade 4
[15] = co-administration with itraconazole compared to lurbinectedin alone, listed as LRB
[16] = co-administration with multiple oral doses of itraconazole
[17] = total plasma lurbinectedin, n = 8 patients per treatment

COc1ccc2[nH]c3c(c2c1)CCN[C@]31CS[C@@H]2c3c(OC(C)=O)c(C)c4c(c3[C@H](COC1=O)N1[C@@H]2[C@H]2c3c(cc(C)c(OC)c3O)C[C@@H]([C@@H]1O)N2C)OCO4 [lurbinectedin]
Protein binding [1]: highly protein-bound
Major clearance (CL) mechanism (cytochrome P450 (CYP) 3A): metabolism of lurbinectedin by cytochrome P450 (CYP) 3A
Time after starting the infusion for which plasma concentrations were measurable [2]: at least 160 h
Decrease of unbound CL [3, 7]: 58%
Increase of unbound AUC0–∞ [3, 7]: 2.4 fold
Unbound t1/2 longer [3, 7]: 2 fold
Vd ([3]; human, intravenous, 3.2 mg/m^2, unbound plasma lurbinectedin, Test n = 5, Reference n = 8, read-out: Unbound Vss, geometric mean (CV%)): 235000 L
half-life ([3]; human, intravenous, 3.2 mg/m^2, unbound plasma lurbinectedin, Test n = 5, Reference n = 8, read-out: Unbound t1/2, geometric mean (CV%) (converted)): 2800 min
Unbound AUC0–t, dose-normalized, geometric mean (CV%) [3, 8]: 184.55 (57.58) pg·h/mL/mg
Unbound AUC0–∞, dose-normalized, geometric mean (CV%) [3, 8]: 188.84 (56.92) pg·h/mL/mg
Unbound CL, geometric mean (CV%) [3, 8]: 5295.44 (56.92) L/h
Unbound Cmax, dose-normalized, geometric mean (CV%) [3, 8]: 40.03 (21.75) pg/mL/mg
Tolerability ([4]; 0.9 mg/m^2 1 h IV infusion Day 1 q3wk with itraconazole): well tolerated
ALT increased (biochemical laboratory abnormality, regardless of relationship) [4, 9]: 1 (33) n (%) of patients
Anemia (hematological laboratory abnormality, regardless of relationship) [4, 9]: 3 (100) n (%) of patients
Constipation (treatment-related AE) [4, 9]: 1 (33) n (%) of patients
GGT increased (biochemical laboratory abnormality, regardless of relationship) [4, 9]: 1 (33) n (%) of patients
Leukopenia (hematological laboratory abnormality, regardless of relationship) [4, 9]: 3 (100) n (%) of patients
Lymphopenia (hematological laboratory abnormality, regardless of relationship) [4, 9]: 3 (100) n (%) of patients
Neutropenia (hematological laboratory abnormality, regardless of relationship) [4, 9]: 2 (67) n (%) of patients
Thrombocytopenia (hematological laboratory abnormality, regardless of relationship) [4, 9]: 2 (67) n (%) of patients
Vomiting (treatment-related AE) [4, 9]: 1 (33) n (%) of patients
ALT increased (biochemical laboratory abnormality, regardless of relationship) [4, 10]: 1 (33) n (%) of patients
Leukopenia (hematological laboratory abnormality, regardless of relationship) [4, 10]: 1 (33) n (%) of patients
Lymphopenia (hematological laboratory abnormality, regardless of relationship) [4, 10]: 1 (33) n (%) of patients
Leukopenia (hematological laboratory abnormality, regardless of relationship) [4, 11]: 1 (33) n (%) of patients
Neutropenia (hematological laboratory abnormality, regardless of relationship) [4, 11]: 2 (67) n (%) of patients
Bone pain (treatment-emergent AE, regardless of relationship) ([4]; Part A, all grades): 1 (33) n (%) of patients
Constipation (treatment-emergent AE, regardless of relationship) ([4]; Part A, all grades): 1 (33) n (%) of patients
Dysgeusia (treatment-emergent AE, regardless of relationship) ([4]; Part A, all grades): 1 (33) n (%) of patients
Fatigue (treatment-emergent AE, regardless of relationship) ([4]; Part A, all grades): 1 (33) n (%) of patients
Pleural effusion (treatment-emergent AE, regardless of relationship) ([4]; Part A, all grades): 1 (33) n (%) of patients
Vomiting (treatment-emergent AE, regardless of relationship) ([4]; Part A, all grades): 1 (33) n (%) of patients
Pleural effusion (treatment-emergent AE, regardless of relationship) ([4]; Part A, grade 3): 1 (33) n (%) of patients
ALT increased (biochemical laboratory abnormality, regardless of relationship) [4, 12]: 9 (82) n (%) of patients
Acute kidney injury (treatment-related AE) [4, 12]: 1 (9) n (%) of patients
Anemia (hematological laboratory abnormality, regardless of relationship) [4, 12]: 9 (82) n (%) of patients
CPK increased (biochemical laboratory abnormality, regardless of relationship) [4, 12]: 1 (9) n (%) of patients
Fatigue (treatment-related AE) [4, 12]: 2 (18) n (%) of patients
GGT increased (biochemical laboratory abnormality, regardless of relationship) [4, 12]: 4 (36) n (%) of patients
Leukopenia (hematological laboratory abnormality, regardless of relationship) [4, 12]: 8 (73) n (%) of patients
Lymphopenia (hematological laboratory abnormality, regardless of relationship) [4, 12]: 9 (82) n (%) of patients
Nausea (treatment-related AE) [4, 12]: 5 (45) n (%) of patients
Neutropenia (hematological laboratory abnormality, regardless of relationship) [4, 12]: 8 (73) n (%) of patients
Rhabdomyolysis (treatment-related AE) [4, 12]: 1 (9) n (%) of patients
Thrombocytopenia (hematological laboratory abnormality, regardless of relationship) [4, 12]: 8 (73) n (%) of patients
Vomiting (treatment-related AE) [4, 12]: 3 (27) n (%) of patients
Acute kidney injury (treatment-related AE) [4, 13]: 1 (9) n (%) of patients
Anemia (hematological laboratory abnormality, regardless of relationship) [4, 13]: 1 (9) n (%) of patients
GGT increased (biochemical laboratory abnormality, regardless of relationship) [4, 13]: 1 (9) n (%) of patients
Leukopenia (hematological laboratory abnormality, regardless of relationship) [4, 13]: 5 (45) n (%) of patients
Lymphopenia (hematological laboratory abnormality, regardless of relationship) [4, 13]: 2 (18) n (%) of patients
Neutropenia (hematological laboratory abnormality, regardless of relationship) [4, 13]: 5 (45) n (%) of patients
Rhabdomyolysis (treatment-related AE) [4, 13]: 1 (9) n (%) of patients
Vomiting (treatment-related AE) [4, 13]: 1 (9) n (%) of patients
CPK increased (biochemical laboratory abnormality, regardless of relationship) [4, 14]: 1 (9) n (%) of patients
Leukopenia (hematological laboratory abnormality, regardless of relationship) [4, 14]: 1 (9) n (%) of patients
Lymphopenia (hematological laboratory abnormality, regardless of relationship) [4, 14]: 1 (9) n (%) of patients
Neutropenia (hematological laboratory abnormality, regardless of relationship) [4, 14]: 3 (27) n (%) of patients
Thrombocytopenia (hematological laboratory abnormality, regardless of relationship) [4, 14]: 1 (9) n (%) of patients
Acute kidney injury (treatment-emergent AE, regardless of relationship) ([4]; Part B, all grades): 1 (9) n (%) of patients
Deep vein thrombosis (treatment-emergent AE, regardless of relationship) ([4]; Part B, all grades): 1 (9) n (%) of patients
Diarrhea (treatment-emergent AE, regardless of relationship) ([4]; Part B, all grades): 1 (9) n (%) of patients
Fatigue (treatment-emergent AE, regardless of relationship) ([4]; Part B, all grades): 2 (18) n (%) of patients
Intestinal pseudo-obstruction (treatment-emergent AE, regardless of relationship) ([4]; Part B, all grades): 1 (9) n (%) of patients
Nausea (treatment-emergent AE, regardless of relationship) ([4]; Part B, all grades): 5 (45) n (%) of patients
Respiratory failure (treatment-emergent AE, regardless of relationship) ([4]; Part B, all grades): 1 (9) n (%) of patients
Rhabdomyolysis (treatment-emergent AE, regardless of relationship) ([4]; Part B, all grades): 1 (9) n (%) of patients
Small intestinal obstruction (treatment-emergent AE, regardless of relationship) ([4]; Part B, all grades): 1 (9) n (%) of patients
Stomatitis (treatment-emergent AE, regardless of relationship) ([4]; Part B, all grades): 1 (9) n (%) of patients
Vomiting (treatment-emergent AE, regardless of relationship) ([4]; Part B, all grades): 3 (27) n (%) of patients
Acute kidney injury (treatment-emergent AE, regardless of relationship) ([4]; Part B, grade 3): 1 (9) n (%) of patients
Deep vein thrombosis (treatment-emergent AE, regardless of relationship) ([4]; Part B, grade 3): 1 (9) n (%) of patients
Rhabdomyolysis (treatment-emergent AE, regardless of relationship) ([4]; Part B, grade 3): 1 (9) n (%) of patients
Small intestinal obstruction (treatment-emergent AE, regardless of relationship) ([4]; Part B, grade 3): 1 (9) n (%) of patients
Vomiting (treatment-emergent AE, regardless of relationship) ([4]; Part B, grade 3): 1 (9) n (%) of patients
Patients with lurbinectedin dose reduction due to AEs ([4]; during treatment with lurbinectedin alone (grade 3 ALT increase; grade 4 neutropenia)): Two
Patients who discontinued treatment due to a treatment-related serious AE ([4]; grade 3 rhabdomyolysis, Cycle 2 of Part B (Sequence 1), lurbinectedin alone): one
Increase of total plasma AUC0–t [5, 7]: approximately 2.4 fold
Increase of total plasma AUC0–∞ [5, 7]: approximately 2.7 fold
Increase of total plasma Cmax [5, 7]: 15%
Increase of total plasma AUC0–t [5, 15]: 2.4 fold
Increase of total plasma AUC0–∞ [5, 15]: 2.7 fold
Prolongation of terminal half-life (t1/2), total plasma [5, 16]: 2.2 fold
Reduction of total plasma CL [5, 16]: 63%
clearance ([5]; human, intravenous, 3.2 mg/m^2, total plasma lurbinectedin, n = 8 patients per treatment, read-out: CL, geometric mean (CV%) (converted)): 158 mL/min
Vd ([5]; human, intravenous, 3.2 mg/m^2, total plasma lurbinectedin, n = 8 patients per treatment, read-out: Vss, geometric mean (CV%)): 419 L
half-life ([5]; human, intravenous, 3.2 mg/m^2, total plasma lurbinectedin, n = 8 patients per treatment, read-out: t1/2, geometric mean (CV%) (converted)): 2800 min
AUC0–t, dose-normalized, geometric mean (CV%) [5, 17]: 103.4 (78.85) µg·h/L/mg
AUC0–∞, dose-normalized, geometric mean (CV%) [5, 17]: 105.8 (77.37) µg·h/L/mg
Cmax, dose-normalized, geometric mean (CV%) [5, 17]: 22.43 (53.75) µg/L/mg
Population estimate for total plasma CL ([6]; 1 h IV infusion, single agent or combined): 11.2 L/h
Extraction ratio [6]: 0.19
Population estimate of apparent volume at steady state [6]: 438 L
Reduction of CL ([6]; co-administration of cytochrome CYP3A inhibitors): 30%
Decrease of mean plasma CL ([6]; concomitant administration of aprepitant (a moderate CYP3A4 inhibitor)): 30%
Blood CL ([6]; corresponding to total plasma CL 11.2 L/h): ~ 17 L/h
Reduction of CL ([6]; high C-reactive protein): 20%
Reduction of CL ([6]; high α-1-acid glycoprotein): 28%
Reduction of CL ([6]; low albumin): 20%
